Experimental data: patent US6287813A, “Antibiotic-based gene regulation system” (Cistronics Cell Technology GmbH, priority 1999, dated 2001)

What was measured:
PIT/PPIR system = target: T1, PIT/PPIR system (Streptomyces coelicolor, UniProt Q9ADN3); assay: SEAP reporter assay, CHO-TWIN clones transfected with pMF172 (PPIR-SEAP); type: cell-based; conditions: for SEAP Production (%): 48 h, no inducer = 100
T1 construct: pMF156/pTWIN in CHO cells, PPIR-SEAP or GFP reporter
T1 sequence (Q9ADN3 1-252): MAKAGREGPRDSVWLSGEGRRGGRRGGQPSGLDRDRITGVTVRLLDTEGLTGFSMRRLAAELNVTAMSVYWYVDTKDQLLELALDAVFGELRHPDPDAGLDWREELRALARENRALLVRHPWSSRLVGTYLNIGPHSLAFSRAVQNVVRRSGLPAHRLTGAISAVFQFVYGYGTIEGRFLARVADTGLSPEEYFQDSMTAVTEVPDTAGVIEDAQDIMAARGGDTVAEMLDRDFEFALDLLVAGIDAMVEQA
Text: (§1) pTWIN contains both PIT and tTA in a PSV40 -driven dicistronic configuration. For construction of pTWIN, PIT was first transferred from pMF156 as an EcoRI/HindIII fragment to the corresponding sites of pSBC-1 (EcoRI/HindIII; resulting in pMF167) before the PIT expression unit could be fused to the tTA expression unit contained on pSBC2-tTA (Fussenegger et al., 1997, supra) via SspI/NotI sites. Thus, pTWIN contains the dicistronic PSV40 -PIT-IRES-tTA-pA expression cassette.
(§2) Chinese hamster ovary cells (CHO-K1, ATCC: CCL 61), Baby hamster kidney cells (BHK-21, ATCC: CRL-8544), and HeLa cells (ATCC: CRL-7923) as well as stable cell lines CHO-PIT1, CHO-PIT2, CHO-TWIN195, CHO-TWIN1108 and CHO-PIT1-SEAP were cultured as described before (Fussenegger et al., 1998, Nat. Biotechnol. 16,468-472) in the presence of appropriate antibiotics: G418 400 μg/ml; zeocin 100 μg/ml. Optimized CaPO4 protocols were used for high efficiency transient transfection of all cell lines (id). Transient transfected cells were routinely analyzed after 48 h for GFP or SEAP expression using fluorescence microscopy and p-nitrophenolphosphate-based light absorbance timecourse, respectively, as described before (Fussenegger et al., 1998, Nat. Biotechnol. 16, 468-472; Berger et al., 1988, Gene 66, 1-10 b). For construction of stable CHO-PIT and CHO-TWIN cell lines, CHO-K1 was cotransfected either with pMF156 or pTWIN1 and pSV2neo carrying the G418 resistance gene. CHO-PIT1-SEAP was constructed by cotransfection of pMF172 and pZeoSV2 (Invitrogen). For assessment of dose-response characteristics of PPIR -regulated gene expression, CHO-PIT1-SEAP were cultured at cell densities of 150,000/ml for 48 at various PI concentrations. The mixed populations were cloned using FACS-mediated single-cell-sorting (FACStar^Plus; Beckton Dickinson). Gel retardation assay were performed as described (Salah-Bey et al., 1995, supra) using Pip purified from an overproducing strain of E. coli. Pip (0.02 pmol) was titrated with a range of antibiotic concentrations in a reaction volume of 20 μl. Protein solutions were pre-incubated at room temperature for 15 min. in the absence or presence of PI or its derivative quinupristin in a buffer containing 10 mM Tris (pH 7.8), 10 mM MgCl2, 300 mM NaCl, 2 mM DTT and 10% glycerol. An EcoRI-HindII PPTR fragment (0.02 pmol) containing three Pip binding sites (radiolabelled using α-^32 P)dATP was added and incubated for 15 min. To minimize nonspecific protein binding and increase protein stability, 2 μg of poly dIdC and 20 μg BSA were included in the incubation mix. Protein-DNA complexes were separated on 5% polyacrylamide,TBE gels and visualized by autoradiography.
(§3) CHO-TWIN195 and CHO-TWIN1108 were transfected under identical conditions with the isogenic plasmids containing the SEAP gene under control of the tTA-activated promoter PhCMV*-1 (pMF111) or the PIT-activated promoter PPIR (pMF172). Transfected cells were grown for 48 h in the presence or absence of either antibiotic prior to assay of SEAP activity.
(§4) Table 6: Comparison of the regulation performance of streptogramin- (PI and virginiamycin; VIR) and tetracycline-based gene regulation systems. The two cell clones CHO-TWIN195 and CHO-TWIN1108 containing both pristinamycin- and tetracycline-dependent transactivators were transfected with either the streptogramin-responsive or the TET-responsive SEAP reporter plasmids pMF172 (PPIR -SEAP) and pMF111 (PhCMV*-1 -SEAP), respectively, and the relative SEAP production was assessed. SEAP production values are normalized by SEAP activities under the antibiotic-free, active promoter conditions as follows: pMF172 in CHO-TWIN195:1.7 mU/ml; in CHO-TWIN1108 : 1.8 mU/ml. pMF111 in CHO-TWIN195 : 18.6 mU/ml; in CHO-TWIN1108 : 19.2 mU/ml.
(§5) Table 7: Compatibility of the streptogramin- and tetracycline-based gene regulation systems. Crossregulation of pristinamycin (PI) and the tetracyclines doxycycline (DOX) and tetracycline (TET). […]

[1] = target: T2, TET-responsive system (tTA/PhCMV*-1) (Escherichia coli, UniProt P04483); assay: SEAP reporter assay, CHO-TWIN clones transfected with pMF111 (PhCMV*-1-SEAP); type: cell-based; conditions: CHO-TWIN1108 + pMF111; for SEAP Production (%): crossregulation
T2 construct: expressed in transfected cells; host or cells: CHO-K1 clones CHO-TWIN195 and CHO-TWIN1108 (pTWIN1)
T2 sequence (P04483 whole entry, added parts left off): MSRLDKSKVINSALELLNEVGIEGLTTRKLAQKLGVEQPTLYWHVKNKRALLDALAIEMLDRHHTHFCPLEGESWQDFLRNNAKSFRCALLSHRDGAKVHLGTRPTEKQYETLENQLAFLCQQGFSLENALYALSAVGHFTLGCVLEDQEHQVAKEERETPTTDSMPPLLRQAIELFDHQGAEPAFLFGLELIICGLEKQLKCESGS
Text: as §1, §2, §3, §4, §5

[2] = tested on: PIT-dependent promoters PPIR, PPIR2, PPIR3; assay: SEAP expression from modified PI-responsive promoters (PPIR, PPIR2, PPIR3); type: cell-based, Streptomyces coelicolor
Sequence of PIT-dependent promoters PPIR, PPIR2, PPIR3 (as listed by the source): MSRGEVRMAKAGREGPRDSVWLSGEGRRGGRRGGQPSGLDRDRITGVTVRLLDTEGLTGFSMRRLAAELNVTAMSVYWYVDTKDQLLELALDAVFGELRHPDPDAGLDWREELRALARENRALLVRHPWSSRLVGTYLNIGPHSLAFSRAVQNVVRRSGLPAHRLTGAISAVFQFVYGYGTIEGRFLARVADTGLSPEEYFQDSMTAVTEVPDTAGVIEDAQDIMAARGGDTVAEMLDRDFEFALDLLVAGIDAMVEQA
Text: The naturally occurring Pptr sequence contains only three distinct Pip binding sites which could accommodate PIT. In order to enhance maximal expression from streptogramin-responsive system, we constructed PI-responsive promoters with two (PPIR2) and three (PPIR3) ptr binding motifs with a total of 6 and 9 Pip binding sites, respectively.
Both DNA fragments were digested with AatII and Sse8387I (corresponding restriction sites are shown in bold) and ligated to the corresponding sites of pMF172 (PPIR -SEAP; AatII/Sse8387I) thereby replacing the single Pip binding sequence (Pptr of S. pristinaespiralis; Salah-Bey et al., 1995; Salah-Bey and Thompson, 1995) to result in plasmids pMF198 (PPIR2 -SEAP) and pMF199 (PPIR3 -SEAP). […]

With pristinamycin I [PI] the “Induction factor (IF; ratio of maximal expression level to antibiotic-repressed expression level)” value (PIT/PPIR system; CHO-TWIN195 + pMF172) was 12, the “SEAP Production (%)” value (PIT/PPIR system; CHO-TWIN195 + pMF172) was 8.84 ± 0.01% and the “Induction factor (IF; ratio of maximal expression level to antibiotic-repressed expression level)” value (PIT/PPIR system; CHO-TWIN1108 + pMF172) was 45. For the same substance, the “SEAP Production (%)” value (PIT/PPIR system; CHO-TWIN1108 + pMF172) was 2.2 ± 0.4%, the “Effect on expression from the TET-responsive system” value [1] was “no effect” and the “SEAP Production (%)” value ([1]; 2 μg/ml) was 94.8 ± 5.3%. The “SEAP Production (%)” value ([1]; 10 μg/ml, 2880 min) was 92.4 ± 7.9%, the “SEAP expression in the presence of PI” value ([2]; PPIR2 -SEAP (pMF198)) was 0.073 ± 0.004 and the “SEAP expression in the presence of PI” value ([2]; PPIR2 -SEAP (pMF199) as printed) was 0.09 ± 0.008. For the same substance, the “SEAP expression in the presence of PI” value ([2]; PPIR -SEAP (pMF172)) was 0.04 ± 0.019.
